The nature of one data set: Cytotoxicity in L6 cells. The class given is cell-based, rat. As to the method: (§1) Based on the antiparasitic bioactivity of the crude extract of MCy12716, angiolams A (1), B (2), C (3), D (4), and F (5) were tested for their in vitro activities against the following protozoan parasites: Trypanosoma brucei rhodesiense (STIB 900) bloodstream forms, Trypanosoma cruzi (Tulahuen C4) amastigotes, Leishmania donovani (MHOM/ET/67/L82) axenic amastigotes, and Plasmodium falciparum (NF54) proliferative erythrocytic stages. In parallel, the cytotoxicity of these compounds in rat skeletal myoblasts (L-6 cells) was determined in order to obtain an initial assessment of their selectivity.
(§2) In vitro activity assays against a panel of protozoal parasites, namely Trypanosoma brucei rhodesiense (STIB 900), Trypanosoma cruzi (Tulahuen C4), Leishmania donovani (MHOM/ET/67/L82), and Plasmodium falciparum (NF54), and cytotoxicity tests against mammalian cells (L6-cell line from rat-skeletal myoblasts) were performed according to previously described methods ([2], [3]). All assays were performed in at least three independent replicates.

In data set [1] the test system is Leishmania donovani (MHOM/ET/67/L82) axenic amastigotes. Put plainly: In vitro activity against Leishmania donovani axenic amastigotes. The class given is cell-based. To be noted: for L. donovani SI (selectivity index): IC50 in L6 cells divided by IC50 in L. donovani; for IC50: Leishmania donovani, MHOM-ET-67/L82 axenic amastigotes, mean of at least three independent replicates ± SD, read-out: L. donovani IC50. As to the method:
as §1, §2

The subject of data set [2] is Plasmodium falciparum (NF54) proliferative erythrocytic stages. Description: In vitro activity against Plasmodium falciparum erythrocytic stages. It counts as cell-based. Conditions: for P. falciparum SI (selectivity index): IC50 in L6 cells divided by IC50 in P. falciparum; for IC50: Plasmodium falciparum. The procedure:
In parallel, the cytotoxicity of these compounds in rat skeletal myoblasts (L-6 cells) was determined in order to obtain an initial assessment of their selectivity.
as §2

Data set [3] deals with Trypanosoma brucei rhodesiense (STIB 900) bloodstream forms. Description: In vitro activity against Trypanosoma brucei rhodesiense bloodstream forms. It counts as cell-based. Conditions: for T. b. rhodesiense SI (selectivity index): IC50 in L6 cells divided by IC50 in T. b. rhodesiense; for IC50: Trypanosoma brucei, read-out: T. b. rhodesiense IC50. As to the method:
as §1, §2

For data set [4], the system named is Trypanosoma cruzi (Tulahuen C4) amastigotes. Put plainly: In vitro activity against Trypanosoma cruzi amastigotes. It counts as cell-based. Conditions: for T. cruzi SI (selectivity index): IC50 in L6 cells divided by IC50 in T. cruzi; for IC50: Trypanosoma cruzi, Tulahuen C4, mean of at least three independent replicates ± SD, read-out: T. cruzi IC50. The procedure: as §1, §2

[5] abbreviates: NF54, mean of at least three independent replicates ± SD, read-out: P. falciparum IC50.
[6] abbreviates: STIB 900, mean of at least three independent replicates ± SD.
Where [7] appears, read: L6 rat skeletal myoblasts, mean of at least three independent replicates ± SD, read-out: Cytotoxicity in L6 cells IC50.

Like-named read-outs stand apart in the source and are kept apart here.

One may read the IC50 as the concentration that gives 50% inhibition.

As to `C=C/C=C(\C)[C@@H](O)CC[C@@H](C)/C=C/[C@@H]1CC[C@@H](C)C(=O)CC(=O)N[C@@H](C)CCC(=O)[C@@H](C)[C@H](O)[C@@H](C)/C=C(\C)C(=O)O1` [Angiolam A, angiolam A], the IC50 in “Cytotoxicity in L6 cells” (rat) was determined as 94 ± 23.7 µM; in data set [1], 16.7 ± 7.3 µM; in data set [2] (setting [5]) it was 2.7 ± 0.5 µM; in data set [3] (setting [6]), 1.5 ± 0.6 µM; in data set [4], 12.9 ± 5.3 µM. In addition, in data set [1], the “L. donovani SI (selectivity index)” value is listed as 5.62. Besides, the “P. falciparum SI (selectivity index)” value in data set [2] is on record as 34.9. In data set [3], the “T. b. rhodesiense SI (selectivity index)” value was 63.2. The “T. cruzi SI (selectivity index)” value in data set [4] was 7.3.

Take `C=C/C=C(\C)C(=O)CC[C@@H](C)/C=C/[C@@H]1CC[C@@H](C)C(=O)CC(=O)N[C@@H](C)CCC(=O)[C@@H](C)[C@H](O)[C@@H](C)/C=C(\C)C(=O)O1` [Angiolam B, angiolam B]: the IC50 in the data set “Cytotoxicity in L6 cells” (rat) stood at 27.8 ± 2 µM; in data set [1] it was 6.6 ± 1.9 µM; in data set [2] (setting [5]), 0.3 ± 0.1 µM; in data set [3] (setting [6]), 6.3 ± 1 µM; in data set [4], 30.4 ± 10 µM. Moreover, the “L. donovani SI (selectivity index)” value in data set [1] was determined as 4.22. Moreover, the “P. falciparum SI (selectivity index)” value in data set [2] was ≥ 30; in data set [2] (listed as Angiolam B (2)) it was 91.6. Further, in data set [3], the “T. b. rhodesiense SI (selectivity index)” value is 4.4. Further, the “T. cruzi SI (selectivity index)” value in data set [4] is recorded as ≤ 2.1; in data set [4] (listed as Angiolam B (2)), 0.9.

For `CC/C=C(\C)[C@@H](O)CC[C@@H](C)/C=C/[C@@H]1CC[C@@H](C)C(=O)CC(=O)N[C@@H](C)CCC(=O)[C@@H](C)[C@H](O)[C@@H](C)/C=C(\C)C(=O)O1` [Angiolam C, angiolam C], the IC50 in the data set “Cytotoxicity in L6 cells” (rat) was 30.6 ± 2.3 µM; in data set [1], 15.4 ± 2.3 µM; in data set [2] (setting [5]), 0.6 ± 0.4 µM; in data set [3] (setting [6]), 4.5 ± 0.4 µM; in data set [4], 34 ± 11.6 µM. For the same compound, the “L. donovani SI (selectivity index)” value in data set [1] came to 1.99. In addition, the “P. falciparum SI (selectivity index)” value in data set [2] was ≥ 30; in data set [2] (listed as Angiolam C (3)) it was 53.7. Moreover, the “T. b. rhodesiense SI (selectivity index)” value in data set [3] turned out to be 6.8. Further, the “T. cruzi SI (selectivity index)” value in data set [4] is on record as ≤ 2.1; in data set [4] (listed as Angiolam C (3)) it was 0.9.

Turning to `C=C/C=C(\C)[C@@H](O)CC[C@@H](C)/C=C/[C@@H]1CC[C@@H](C)C(=O)CC(=O)N[C@@H](C)CCC(=O)[C@@H](C)[C@H](O)[C@@H](C)/C=C(\CC)C(=O)O1` [Angiolam D, angiolam D], the IC50 amounted to 27.8 ± 3.7 µM in the data set “Cytotoxicity in L6 cells” (setting [7]); 8.2 ± 4.5 µM in data set [1]; 0.8 ± 0.6 µM in data set [2] (setting [5]); 4.7 ± 1.9 µM in data set [3] (setting [6]); 6.5 ± 2.2 µM in data set [4]. In data set [1], the “L. donovani SI (selectivity index)” value is on record as 3.38. In addition, the “P. falciparum SI (selectivity index)” value in data set [2] (listed as Angiolam D (4)) was found to be 37.1. The “T. b. rhodesiense SI (selectivity index)” value in data set [3] worked out at 6.0. In addition, the “T. cruzi SI (selectivity index)” value in data set [4] is 4.3.

With `C=C/C=C(\C)[C@@H](O)CC[C@@H](C)/C=C/[C@@H]1CC[C@@H](C)C(=O)CC(=O)N[C@@H](C)CCC(=O)[C@@H](C)[C@H](O)[C@@H](CC)/C=C(\CC)C(=O)O1` [Angiolam F, angiolam F], the IC50 is 49.9 ± 21.6 µM in “Cytotoxicity in L6 cells” (rat); 17.6 ± 2.1 µM in data set [1]; 1.3 ± 0.6 µM in data set [2] (setting [5]); 25 ± 1.4 µM in data set [3] (setting [6]); 24.4 ± 5 µM in data set [4]. For the same compound, the “L. donovani SI (selectivity index)” value in data set [1] is 2.83. Also, the “P. falciparum SI (selectivity index)” value in data set [2] is given as 37; in data set [2] (listed as Angiolam F (5)), 37.4. The “T. b. rhodesiense SI (selectivity index)” value in data set [3] is recorded as 2.0. The figures for the “T. cruzi SI (selectivity index)” value in data set [4] and in data set [4] (listed as Angiolam F (5)) were ≤ 2.1 and 2.1, respectively.

Turning to `O=C(Cn1ccnc1[N+](=O)[O-])NCc1ccccc1` [Benznidazole, reference compound], in data set [4], the IC50 is 2.47 µM.

For the compound `CCN(CC)CCCC(C)Nc1ccnc2cc(Cl)ccc12` (centres unmarked) [Chloroquine, reference compound], the IC50 in data set [2] (NF54, read-out: P. falciparum IC50) came to 0.004 µM.

Turning to `Nc1nc(N)nc(Nc2ccc([As]3SCC(CO)S3)cc2)n1` (centres unmarked) [Melarsoprol, reference compound], the IC50 in data set [3] came out at 0.02 µM.

Turning to `CCCCCCCCCCCCCCCCOP(=O)([O-])OCC[N+](C)(C)C` [Miltefosine, reference compound], the IC50 in data set [1] was determined as 0.53 µM.

In the case of `COc1cc([C@@H]2c3cc4c(cc3[C@H](O)[C@H]3COC(=O)[C@H]23)OCO4)cc(OC)c1OC` [Podophyllotoxin, reference compound], the IC50 in the data set “Cytotoxicity in L6 cells” (setting [7]) stood at 0.02 µM.

The values above are taken from article PMC10913735, “New myxobacteria of the Myxococcaceae clade produce angiolams with antiparasitic activities” (Microbiology Spectrum, 2024).
